From paper PMC7217250, “Efficiency of vanillin in impeding metabolic adaptability and virulence of Candida albicans by inhibiting glyoxylate cycle, morphogenesis, and biofilm formation” (Current Medical Mycology, 2020) come the findings set out here.

The target in the test is T1, Mls1p (malate synthase, MLS) (Candida albicans, UniProt Q5APD2).
T1 construct: gene MLS1; native enzyme in crude extract of C. albicans cells; not purified
Nature of the test: spectrophotometric 5-thio-2-nitrobenzoic acid formation at […] nm, crude extract. Type of test: cell-based.

T1 sequence (Q5APD2 entry or part of it): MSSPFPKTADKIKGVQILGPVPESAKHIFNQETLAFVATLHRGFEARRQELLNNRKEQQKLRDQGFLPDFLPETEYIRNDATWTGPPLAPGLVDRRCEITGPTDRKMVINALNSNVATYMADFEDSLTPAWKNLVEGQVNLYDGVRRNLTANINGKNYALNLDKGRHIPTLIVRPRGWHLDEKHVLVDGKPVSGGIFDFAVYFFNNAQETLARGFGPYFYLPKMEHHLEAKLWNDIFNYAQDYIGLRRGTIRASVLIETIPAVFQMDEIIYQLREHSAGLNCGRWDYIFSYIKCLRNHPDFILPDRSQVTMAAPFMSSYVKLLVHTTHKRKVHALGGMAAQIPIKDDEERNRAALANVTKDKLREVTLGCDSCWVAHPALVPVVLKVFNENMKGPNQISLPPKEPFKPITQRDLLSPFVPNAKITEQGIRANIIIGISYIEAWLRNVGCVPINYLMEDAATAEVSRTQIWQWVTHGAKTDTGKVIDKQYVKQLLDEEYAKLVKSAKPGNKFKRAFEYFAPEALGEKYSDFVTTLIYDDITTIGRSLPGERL

Consider `CC(=O)SCCNC(=O)CCNC(=O)[C@H](O)C(C)(C)COP(=O)(O)OP(=O)(O)OC[C@H]1O[C@@H](n2cnc3c(N)ncnc32)[C@H](O)[C@@H]1OP(=O)(O)O` [acetyl CoA], for which the “spectrophotometric 5-thio-2-nitrobenzoic acid formation at 412 nm, crude extract” value is “acetyl CoA (Sigma Chemical Co., USA) were used as the substrates for the ICL and MLS”.
